One compound from patent US20090326008A1, “NF-kappa B Inhibitor” (priority 2006, published 2009) can be followed below.

Common to all, as to type: cell-based, human
Details in all cases: IL-1β-stimulated DMSO-treated cells = 100%, ACTB reference

Assay [1] relates to TNFα. The assay is described as follows: Relative TNFα mRNA expression in IL-1β-stimulated MKN-45 cells (real-time PCR). On the procedure:
(§1) RNA was extracted from the cells used in Example 2 according to the manufacturer's protocol for ABI Prism 6100 Nucleic Acid PrepStation (a nucleic acid isolation system, product of Applied Biosystems). More specifically, after removal of the culture supernatant and washing with 1 mL of PBS, 250 μL of Nucleic Acid Purification Lysis Solution (Part No. 4305895, Applied Biosystems) was added, and then agitated using a shaker for 2 to 3 minutes. The Lysis Solution containing the cell lysate was collected, and the total amount was transferred to the wells of RNA Purification Tray (Part No. 4305673, Applied Biosystems), which had been pre-wet with 40 μL of Nucleic Acid Purification Wash Solution I (Part No. 4305891, Applied Biosystems) beforehand. Aspiration (20% pressure) was performed for 2 minutes to adsorb the sample onto the RNA Purification Tray, followed by sequentially adding and aspirating (20% pressure, 2 min.) 500 μL of Wash Solution I, Nucleic Acid Purification (Part No. 4305891, Applied Biosystems), 400 μL of Wash Solution II, Nucleic Acid Purification (Part No. 4305890, product of Applied Biosystems), 400 μL of the Wash Solution II, and 300 μL of the Wash Solution II in that order. Aspiration (90% pressure) was performed for 5 minutes to remove the water content from the RNA Purification Trays. After addition of 150 μL of Elution Solution, Nucleic Acid Purification (Part No. 4305893, product of Applied Biosystems), aspiration (20% pressure) was performed for 2 minutes, while collecting the outflow. This was used as collected RNA solution.
(§2) Absorbance of the collected RNA solution at 260 nm was measured using a microplate spectrophotometer (“SpectraMax Plus”, product of Molecular Devices) with an analysis software (“SOFTmaxPRO ver.3.1.2”, product of Molecular Devices), and the RNA concentration was determined from the absorbance. Likewise, absorbance at 280 nm was measured and the purity of the RNA was determined using the analysis software.
(§3) cDNA was synthesized according to the manufacturer's protocol for TaqMan® Reverse Transcription Reagents (Part No. N808-0234, product of Applied Biosystems). More specifically, about 0.5 μg of RNA, 2.5 μL of 10×RT buffer, 5.5 μL of MgCl2 solution, 5 μL of dNTP mixture, 1.25 μL of random hexamer (primers), 0.5 μL of RNase inhibitor, and 0.63 μL of MultiScribe Reverse Transcriptase (product of Applied Biosystems) were added to each collected RNA sample in a tube, and DEPC-treated water was added to make a total volume of 25 μL and stirred. A reaction consisting of 25° C. for 10 minutes, 48° C. for 30 minutes, and 95° C. for 5 minutes was performed using a PCR thermal cycler (“TaKaRa PCR Thermal Cycler Dice”, product of Takara Bio Inc.) to prepare a cDNA solution.
(§4) PCR was performed according to the manufacturer's protocol for TaqMan® Gene Expression Assays (product of Applied Biosystems). More specifically, 5 μL of TaqMan® Fast Universal PCR Master Mix (product of Applied Biosystems), 0.5 μL of TaqMan® Gene Expression Assays for the target gene (gene-specific probe and primer sets, product of Applied Biosystems), and 4.5 μL of the above-obtained cDNA solution were added to each sample and stirred. A PCR reaction consisting of heating at 95° C. for 20 seconds, followed by 40 cycles consisting of heating at 95° C. for 3 seconds and annealing and extension at 60° C. for 30 seconds was performed using a real-time PCR device (“Applied Biosystems 7500 Real-Time PCR System”) with SDS v1.4 Software (product of Applied Biosystems). Threshold cycle (Ct) values were calculated using the software.
(§5) The Assay IDs of the TaqMan® Gene Expression Assays for the target genes used are as follows:
(§6) The expression level of each gene was determined according to the following formula using the level of ACTB as a reference standard.
(§7) (Relative mRNA expression level)=2̂−{(Ct value of the target gene)−(Ct value of ACTB)} […]

For assay [2], the system named is IL-8. Kind of assay: Relative IL-8 mRNA expression in IL-1β-stimulated MKN-45 cells (real-time PCR). On the procedure: as §1, §2, §3, §4, §5, §6, §7
(Quantitative PCR measures a nucleic acid by following its amplification.)

Assay [3] deals with COX2. The assay is described as follows: Relative COX2 mRNA expression in IL-1β-stimulated MKN-45 cells (real-time PCR). On the procedure: as §1, §2, §3, §4, §5, §6, §7

Structures are written as SMILES.

Regarding `COc1ccc(CC2SC(=S)NC2=O)c2c1N(CCC(C)C)C(=O)CC2` (stereo not drawn) [Test Compound 965], in assay [1], the “TNFa relative mRNA expression level, Mean” value is listed as 63.0%. Also, in assay [2], the “IL-8 relative mRNA expression level, Mean” value amounted to 61.2%. Moreover, the “COX2 relative mRNA expression level, Mean” value in assay [3] is recorded as 37.6%.
